Converted amounts (≈) assume the structure as drawn. Like-named read-outs stand apart in the source and are kept apart here.
Tests used:
S. aureus ATCC 29213 = test: Broth microdilution MIC with arithmetic drug dilutions; assay type: cell-based, Staphylococcus aureus; details: for MIC: Staphylococcus aureus
Protocol: (§1) Pooled sera from humans, mice and rats were obtained from Equitech-Bio (Kerrville, Tex.); pooled serum from beagle dogs was from Bioreclamation (Liverpool, N.Y.). ULTRA was prepared using Centricon Plus-50 ultrafilters (Millipore, Billerica, Mass.), whose molecular weight cutoff (50 kDa) excludes albumin. ORI stock solutions were prepared following CLSI M100-818 (Clinical and Laboratory Standards Institute. 2008. CLSI document M100-S18). Staphylococcus aureus ATCC 29213 was used as the test isolate at a final inoculum of ˜5×10^5 CFU/mL in both MIC and AUIC studies.
(§2) Arithmetic MICs: Broth microdilution MIC assays with Staphylococcus aureus ATCC 29213 were based on CLSI guidelines (Clinical and Laboratory Standards Institute, 2009, CLSI document M7-A7). Growth media were 95% serum:5% CAMHB and 95% serum ultrafiltrate:5% CAMHB. Arithmetic dilutions of oritavancin and comparators were used to increase precision of minimum inhibitory concentration (MIC) values relative to doubling dilutions. Percent binding in serum was calculated as follows: % Bound=(1−[mean MICultrafiltrate/mean MICserum]×100%

[1] = Serum protein binding estimated from MIC shift, serum vs serum ultrafiltrate (human); assay type: in vitro ADME; details: from mean MICs, broth microdilution, this study, read-out: % Bound (protein binding estimate) (converted)
Excerpt: (§3) Avid binding of oritavancin (ORI) to filtration and dialysis membranes renders most protein binding methodologies unsuitable. To control for any impact of serum components on bacterial growth and antibiotic activity, MIC shifts (from arithmetic drug dilutions) and area under the inhibitory curve (AUIC) shifts (from time-kill assays) were quantified in the presence of serum (SER) compared to SER ultrafiltrate (ULTRA; free of albumin) to estimate ORI binding to serum. In this manner, the extent of reduction in oritavancin activity in serum was related to its degree of serum protein binding. The method was benchmarked using daptomycin and ceftriaxone (Lee et al., Antimicrob Agents Chemother. 35:2505-2508 (1991); Schmidt et al., Antimicrob Agents Chemother. 52:3994-4000 (2008); Yuk et al., Clin Pharmacokinet. 17:223-235 (1989); McKay et al., Evaluation of oritavancin activity in vitro in the presence of human and mouse serum, abstr P1854. Abstr. 19th European Congress of Clinical Microbiology and Infectious Diseases. European Society of Clinical Microbiology and Infectious Diseases, Basel, Switzerland, May 16, 2009).
as §1
as §2, with “Arithmetic dilutions of oritavancin and comparators were used to increase precision of minimum inhibitory concentration (MIC) values relative to doubling dilutions.” left out

[2] = Serum protein binding estimated from MIC shift, serum vs serum ultrafiltrate (mouse); assay type: in vitro ADME; details: mouse serum; from mean MICs, broth microdilution; this study; read-out: % Bound (protein binding estimate) (converted)
Excerpt: as §3, §1
as §2, with “Arithmetic dilutions of oritavancin and comparators were used to increase precision of minimum inhibitory concentration (MIC) values relative to doubling dilutions.” left out

[3] = Serum protein binding estimated from MIC shift, serum vs serum ultrafiltrate (rat); assay type: in vitro ADME; details: from mean MICs, broth microdilution, this study, read-out: % Bound (protein binding estimate) (converted)
Excerpt: as §3, §1
as §2, with “Arithmetic dilutions of oritavancin and comparators were used to increase precision of minimum inhibitory concentration (MIC) values relative to doubling dilutions.” left out

[4] = Serum protein binding estimated from MIC shift, serum vs serum ultrafiltrate (dog); assay type: in vitro ADME; details: beagle dog serum; from mean MICs, broth microdilution; this study; read-out: % Bound (protein binding estimate) (converted)
Excerpt: as §3, §1
as §2, with “Arithmetic dilutions of oritavancin and comparators were used to increase precision of minimum inhibitory concentration (MIC) values relative to doubling dilutions.” left out

[5] = Serum protein binding from time-kill AUIC shift, serum vs serum ultrafiltrate (human); assay type: in vitro ADME; details: pooled human serum compared with serum ultrafiltrate, read-out: Protein binding from area under the bacterial kill curves (converted)
Excerpt: as §3, §1
(§4) AUIC studies: Time-kill studies were performed using S. aureus ATCC 29213 at a final inoculum of 1×10^6 CFU/mL in 95% serum:5% CAMHB and in 95% serum ultrafiltrate:5% CAMHB. […] The AUIC was calculated using GraphPad Prism software. Percent binding in serum was calculated as follows: % Bound=(1−[AUICultrafiltrate/AUICserum]×100%

[6] = Serum protein binding from time-kill AUIC shift, serum vs serum ultrafiltrate (mouse); assay type: in vitro ADME; details: pooled mouse serum compared with serum ultrafiltrate, read-out: Protein binding from area under the bacterial kill curves (converted)
Excerpt: as §3, §1, §4

[7] = Serum protein binding from MIC shift, summary across species; assay type: in vitro ADME, human, mouse, rat, dog; details: beagle (dog); human, mouse, rat, dog serum; MIC shift; read-out: Mean serum protein binding, range for the four species tested
Excerpt: as §3, §1
as §2, with “Arithmetic dilutions of oritavancin and comparators were used to increase precision of minimum inhibitory concentration (MIC) values relative to doubling dilutions.” left out

serum protein = test: as above; assay type: in vitro ADME, human, mouse, rat, dog; details: cross-species comparative study and concordant data
Excerpt: as §3, §1
as §2, with “Arithmetic dilutions of oritavancin and comparators were used to increase precision of minimum inhibitory concentration (MIC) values relative to doubling dilutions.” left out

[8] = Protein binding estimates from time kill-based assays, summary; assay type: in vitro ADME; details: human, mouse, pooled serum compared with serum ultrafiltrate; this study; summary value
Excerpt: Avid binding of oritavancin (ORI) to filtration and dialysis membranes renders most protein binding methodologies unsuitable. To control for any impact of serum components on bacterial growth and antibiotic activity, MIC shifts (from arithmetic drug dilutions) and area under the inhibitory curve (AUIC) shifts (from time-kill assays) were quantified in the presence of serum (SER) compared to SER ultrafiltrate (ULTRA; free of albumin) to estimate ORI binding to serum. In this manner, the extent of reduction in oritavancin activity in serum was related to its degree of serum protein binding. […]
as §4

human plasma [9] = details: broth microdilution, various concentrations, Zhanel et al. 1998; cited from earlier work
human plasma [10] = details: DCC adsorption, 1-91 μg/ml, Rowe and Brown 2001; cited from earlier work
human serum = details: broth microdilution, various concentrations, Craig, unpublished; cited from earlier work
Albumin = Albumin (Homo sapiens, UniProt P02768); details: cantilever nanosensor, 0.2 μg/ml, McKendry, unpublished; cited from earlier work
mouse serum = details: broth microdilution, various concentrations, Craig, unpublished; cited from earlier work
rat plasma = details: broth microdilution, various concentrations, cited from earlier work
[11] = test system: exponentially-growing S. aureus (MSSA, MRSA, VRSA); details: within 15 minutes to 2 hours; against MSSA, MRSA, and VRSA; McKay et al. 2009; cited from earlier work

Sequence of Albumin (P02768 25-609): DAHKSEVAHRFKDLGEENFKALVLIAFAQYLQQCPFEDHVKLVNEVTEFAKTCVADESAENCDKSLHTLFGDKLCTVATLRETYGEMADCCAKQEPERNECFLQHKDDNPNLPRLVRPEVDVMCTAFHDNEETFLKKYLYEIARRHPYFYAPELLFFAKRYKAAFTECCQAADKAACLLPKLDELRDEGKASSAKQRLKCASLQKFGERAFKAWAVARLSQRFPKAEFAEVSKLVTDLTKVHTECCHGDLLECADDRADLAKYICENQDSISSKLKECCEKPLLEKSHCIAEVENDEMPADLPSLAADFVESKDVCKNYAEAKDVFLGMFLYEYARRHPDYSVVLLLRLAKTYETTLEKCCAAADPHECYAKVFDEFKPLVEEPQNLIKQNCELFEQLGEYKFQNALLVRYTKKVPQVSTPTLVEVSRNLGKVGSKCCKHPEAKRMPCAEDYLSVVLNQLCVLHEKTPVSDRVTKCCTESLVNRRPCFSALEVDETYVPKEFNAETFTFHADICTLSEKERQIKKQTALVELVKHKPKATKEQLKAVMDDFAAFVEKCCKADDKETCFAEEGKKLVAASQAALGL

CN[C@H](CC(C)C)C(=O)N[C@H]1C(=O)N[C@@H](CC(N)=O)C(=O)N[C@H]2C(=O)N[C@H]3C(=O)N[C@H](C(=O)N[C@H](C(=O)O)c4cc(O)cc(O)c4-c4cc3ccc4O)[C@H](O[C@H]3C[C@](C)(N)[C@@H](O)[C@H](C)O3)c3ccc(c(Cl)c3)Oc3cc2cc(c3O[C@@H]2O[C@H](CO)[C@@H](O)[C@H](O)[C@H]2O[C@H]2C[C@](C)(NCc3ccc(-c4ccc(Cl)cc4)cc3)[C@@H](O)[C@H](C)O2)Oc2ccc(cc2Cl)[C@H]1O [Oritavancin, N-(4-(4-chlorophenyl)benzyl)A82846B]
MIC (S. aureus ATCC 29213; ATCC29213, read-out: MIC, CAMHB, mean, cation-adjusted Mueller-Hinton broth, CLSI conditions, Dog): 0.08 µg/mL (≈ 0.0446 µM) | MIC (S. aureus ATCC 29213; ATCC29213, read-out: MIC, CAMHB, mean, cation-adjusted Mueller-Hinton broth, CLSI conditions, Human): 0.084 µg/mL (≈ 0.0468 µM) | MIC (S. aureus ATCC 29213; ATCC29213, read-out: MIC, CAMHB, mean, cation-adjusted Mueller-Hinton broth, CLSI conditions, Mouse): 0.105 µg/mL (≈ 0.0586 µM) | MIC (S. aureus ATCC 29213; ATCC29213, read-out: MIC, CAMHB, mean, cation-adjusted Mueller-Hinton broth, CLSI conditions, Rat): 0.086 µg/mL (≈ 0.048 µM) | MIC (S. aureus ATCC 29213; ATCC29213, read-out: MIC, Serum, mean, 95% dog serum + 5% CAMHB): 0.475 µg/mL | MIC (S. aureus ATCC 29213; ATCC29213, read-out: MIC, Serum, mean, 95% human serum + 5% CAMHB): 0.775 µg/mL | MIC (S. aureus ATCC 29213; ATCC29213, read-out: MIC, Serum, mean, 95% mouse serum + 5% CAMHB): 0.538 µg/mL | MIC (S. aureus ATCC 29213; ATCC29213, read-out: MIC, Serum, mean, 95% rat serum + 5% CAMHB): 0.313 µg/mL | MIC (S. aureus ATCC 29213; ATCC29213, read-out: MIC, Ultrafiltrate, mean, 95% dog serum ultrafiltrate + 5% CAMHB): 0.061 µg/mL | MIC (S. aureus ATCC 29213; ATCC29213, read-out: MIC, Ultrafiltrate, mean, 95% human serum ultrafiltrate + 5% CAMHB): 0.14 µg/mL | MIC (S. aureus ATCC 29213; ATCC29213, read-out: MIC, Ultrafiltrate, mean, 95% mouse serum ultrafiltrate + 5% CAMHB): 0.079 µg/mL | MIC (S. aureus ATCC 29213; ATCC29213, read-out: MIC, Ultrafiltrate, mean, 95% rat serum ultrafiltrate + 5% CAMHB): 0.055 µg/mL | Mean Fold MIC Increase (S. aureus ATCC 29213; mean MIC in 95% dog serum / mean MIC in 95% dog serum ultrafiltrate): 7.8 fold | Mean Fold MIC Increase (S. aureus ATCC 29213; mean MIC in 95% human serum / mean MIC in 95% human serum ultrafiltrate): 5.5 fold | Mean Fold MIC Increase (S. aureus ATCC 29213; mean MIC in 95% mouse serum / mean MIC in 95% mouse serum ultrafiltrate): 6.8 fold | Mean Fold MIC Increase (S. aureus ATCC 29213; mean MIC in 95% rat serum / mean MIC in 95% rat serum ultrafiltrate): 5.7 fold | fraction unbound [1]: 0.181 | fraction unbound [2]: 0.147 | fraction unbound [3]: 0.176 | fraction unbound [4]: 0.129 | fraction unbound at 0.5 μg/ml ([5]; 0.5 μg/ml oritavancin): 0.326 | fraction unbound at 1 μg/ml ([5]; 1 μg/ml oritavancin): 0.361 | fraction unbound at 2 μg/ml ([5]; 2 μg/ml oritavancin): 0.383 | fraction unbound at 0.5 μg/ml ([6]; 0.5 μg/ml oritavancin): 0.335 | fraction unbound at 1 μg/ml ([6]; 1 μg/ml oritavancin): 0.317 | fraction unbound at 2 μg/ml ([6]; 2 μg/ml oritavancin): 0.312 | fraction unbound [7]: 0.129 to 0.181 | Bound to serum protein, overall conclusion across species (serum protein): approximately 85% | fraction unbound [8]: ~0.35 | Protein Binding (human plasma [9]): 87.5% | Protein Binding (human plasma [10]): 85.7-89.9% | Protein Binding (human serum): 79.6% | Protein Binding (Albumin): 79 ± 0.2% | Protein Binding (mouse serum): 85.2% | Protein Binding (rat plasma; Zhanel et al. 1998, listed as oritavancin): greater than 80% | Protein Binding (rat plasma; Zhanel et al. 1998): >80% | Bactericidal activity, log reduction [11]: ≥ 3 log

Reference: patent US9682061B2, “Methods of treating bacterial infections using oritavancin” (THE MEDICINES COMPANY, priority 2009, dated 2017)
